Test results reported in patent US6914045B2, “Glycopeptide antibiotics” (Wyeth Holdings Corporation, priority 2001, dated 2005).
In brackets after ≈: the same amount, converted by molar mass.

Assays:
Escherichia coli = assay: in vitro antibacterial evaluation, MIC by broth dilution; type: cell-based; conditions: 18 hours at 35° C.
[1] = anatomic pathology (histopathology of heart and kidney) in mice; type: in vivo; conditions: CD-1 mice, 20 mg/kg intravenously daily for 9 days, necropsy day 10, microscopic histopathology
Protocol: Samples of tissues from necropsied mice were formalin-fixed, paraffin-embedded, sectioned, stained with hematoxylin and eosin, and examined microscopically. Histopathologic findings were recorded. These findings were subjectively graded on a scale corresponding to slight, mild, moderate, marked and severe as compared to untreated controls.

[2] = clinical pathology (serum clinical chemistry) in mice; type: in vivo; conditions: CD-1 mice, 20 mg/kg intravenously daily for 9 days, sera day 10
Protocol: 20-day-old CD-1 mice were divided into a vehicle control group (5 mice) and a treatment group (5 mice). Samples of glycopeptide antibiotics were administered at 20 mg/kg intravenously daily for 9 days.

[3] = test system: Staphylococcus aureus-SMITH (GC 4543); assay: acute lethal infection in mice; type: in vivo; conditions: acute lethal infection, female CD-1 mice, intraperitoneal challenge, intravenous 30 min. after infection, 7 day survival
Summary of the method: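 Survival at 7 days, pooled from three independent tests, yields ED50 values. Treatment is intravenous, 30 min after ip infection of female CD-1 mice, using an inoculum lethal to untreated controls within 24-48 hr.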

Enterococcus sp. = assay: in vitro antibacterial evaluation, MIC by broth dilution; type: cell-based; conditions: broth dilution, 18 hours at 35° C.
Summary of the method: (§1)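 Step 1: dilute antibiotic across 64-0.06 μg/mL in Muller-Hinton II […]. Step 2: inoculate at 5×10^5 CFU/mL.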

Streptococcus sp. = assay: as above; type: cell-based; conditions: broth dilution, 18 hours at 35° C.
Summary of the method: as §1

Staphylococcus sp. = assay: as above; type: cell-based; conditions: broth dilution, 18 hours at 35° C.
Summary of the method: as §1

For `COc1ccc2cc(COC3C(CO)OC(OC4C(CO)OC(Oc5ccc(CC6NC(=O)C(C(C)c7ccccc7)NC(=O)CNC(=O)C(CO)NC(=O)C(CC7CNC(=N)N7C7OC(CO)C(O)C(O)C7O)NC(=O)C(CC7CNC(=N)N7)NC6=O)cc5)C(O)C4O)C(O)C3O)ccc2c1` (stereo not drawn) [Example 245a, Cyclo[3-(2-iminoimidazolidin-4-yl)alanyl-3-(3-hexopyranosyl-2-iminoimidazolidin-4-yl)-alanylserylglycyl-β-methylphenylalanyl-O-[4-O-[4-O-[(6-methoxy-2-naphthyl)methyl]-hexopyranosyl]hexopyranosyl]tyrosyl]], the “MIC Escherichia coli (ATCC 25922)” value (Escherichia coli) was 32 µg/mL (≈ 22.3 µM), the “MIC Escherichia coli (GC 4559)” value (Escherichia coli) was 32 µg/mL (≈ 22.3 µM) and the “MIC Escherichia coli (GC 4560)” value (Escherichia coli) was 2 µg/mL (≈ 1.4 µM). The “Anatomical Pathology (Day 10), Heart” value [1] was “+”, the “Anatomical Pathology (Day 10), Kidney” value [1] was “+++” and the “Clinical Chemistry (Day 10) % of Control, BUN” value [2] was “+212%”. The “Clinical Chemistry (Day 10) % of Control, Creatinine” value [2] was “+133%”, the median effective dose (ED50), Staphylococcus aureus-SMITH (GC 4543) [3] was 1 mg/kg and the “MIC Enterococcus avium (GC 4558)” value (Enterococcus sp.) was 4 µg/mL (≈ 2.79 µM). For the same compound, the “MIC Enterococcus faecalis (ATCC 29212)” value (Enterococcus sp.) was 8 µg/mL (≈ 5.58 µM), the “MIC Enterococcus faecalis (GC 2242)” value (Enterococcus sp.) was 4 µg/mL (≈ 2.79 µM) and the “MIC Enterococcus faecalis (GC 2691)” value (Enterococcus sp.) was 8 µg/mL (≈ 5.58 µM). For the same compound, the “MIC Enterococcus faecalis (GC 3059)” value (Enterococcus sp.) was 4 µg/mL (≈ 2.79 µM), the “MIC Enterococcus faecalis (GC 4552)” value (Enterococcus sp.) was 8 µg/mL (≈ 5.58 µM) and the “MIC Enterococcus faecalis (GC 4553)” value (Enterococcus sp.) was 4 µg/mL (≈ 2.79 µM). The “MIC Enterococcus faecalis (GC 4554)” value (Enterococcus sp.) was 8 µg/mL (≈ 5.58 µM), the “MIC Enterococcus faecalis (GC 6189)” value (Enterococcus sp.) was 8 µg/mL (≈ 5.58 µM) and the “MIC Enterococcus faecium (GC 2243)” value (Enterococcus sp.) was 4 µg/mL (≈ 2.79 µM). The “MIC Enterococcus faecium (GC 4556)” value (Enterococcus sp.) was 4 µg/mL (≈ 2.79 µM), the “MIC Enterococcus faecium (GC 4557)” value (Enterococcus sp.) was 2 µg/mL (≈ 1.4 µM) and the “MIC Enterococcus faecalis (ATCC 29212)” value (Enterococcus sp.; strain ATCC 29212) was 8 µg/mL (≈ 5.58 µM). For the same compound, the “MIC Enterococcus faecium (GC 2243)” value (Enterococcus sp.; strain GC 2243) was 4 µg/mL (≈ 2.79 µM), the “MIC Enterococcus faecalis (GC 4552)” value (Enterococcus sp.; strain GC 4552) was 8 µg/mL (≈ 5.58 µM) and the “MIC Enterococcus faecalis (GC 4553)” value (Enterococcus sp.; strain GC 4553) was 4 µg/mL (≈ 2.79 µM). The “MIC Enterococcus faecalis (GC 4554)” value (Enterococcus sp.; strain GC 4554) was 8 µg/mL (≈ 5.58 µM), the “MIC Enterococcus faecium (GC 4556)” value (Enterococcus sp.; strain GC 4556) was 4 µg/mL (≈ 2.79 µM) and the “MIC Enterococcus faecium (GC 4557)” value (Enterococcus sp.; strain GC 4557) was 2 µg/mL (≈ 1.4 µM). The “MIC Enterococcus avium (GC 4558)” value (Enterococcus sp.; strain GC 4558) was 4 µg/mL (≈ 2.79 µM), the “MIC Enterococcus faecalis (GC 6189)” value (Enterococcus sp.; strain GC 6189) was 8 µg/mL (≈ 5.58 µM) and the “MIC Enterococcus faecalis (GC 2242)” value (Enterococcus sp.; inoculum 5×10^5 CFU/mL, strain GC 2242) was 4 µg/mL (≈ 2.79 µM). The “MIC Enterococcus faecalis (GC 2691)” value (Enterococcus sp.; inoculum 5×10^5 CFU/mL, strain GC 2691) was 8 µg/mL (≈ 5.58 µM), the “MIC Enterococcus faecalis (GC 3059)” value (Enterococcus sp.; inoculum 5×10^5 CFU/mL, strain GC 3059) was 4 µg/mL (≈ 2.79 µM) and the “MIC Streptococcus agalactiae (GC 4564)” value (Streptococcus sp.) was 1 µg/mL (≈ 0.698 µM). The “MIC Streptococcus pneumoniae (ATCC 6301)” value (Streptococcus sp.) was 0.5 µg/mL (≈ 0.349 µM), the “MIC Streptococcus pneumoniae (GC 1894)” value (Streptococcus sp.) was under 0.12 µg/mL and the “MIC Streptococcus pneumoniae (GC 4565)” value (Streptococcus sp.) was 1 µg/mL (≈ 0.698 µM). For the same compound, the “MIC Streptococcus pyogenes (GC 4563)” value (Streptococcus sp.) was 1 µg/mL (≈ 0.698 µM), the “MIC Streptococcus pneumoniae (ATCC 6301)” value (Streptococcus sp.; inoculum 5×10^5 CFU/mL, strain ATCC 6301) was 0.5 µg/mL (≈ 0.349 µM) and the “MIC Streptococcus pneumoniae (GC 1894)” value (Streptococcus sp.; inoculum 5×10^5 CFU/mL, strain GC 1894) was under 0.12 µg/mL. The “MIC Streptococcus pyogenes (GC 4563)” value (Streptococcus sp.; inoculum 5×10^5 CFU/mL, strain GC 4563) was 1 µg/mL (≈ 0.698 µM), the “MIC Streptococcus agalactiae (GC 4564)” value (Streptococcus sp.; inoculum 5×10^5 CFU/mL, strain GC 4564) was 1 µg/mL (≈ 0.698 µM) and the “MIC Streptococcus pneumoniae (GC 4565)” value (Streptococcus sp.; inoculum 5×10^5 CFU/mL, strain GC 4565) was 1 µg/mL (≈ 0.698 µM). The “MIC Coagulase Negative Staphylococcus (GC 4547)” value (Staphylococcus sp.) was 2 µg/mL (≈ 1.4 µM), the “MIC Coagulase Negative Staphylococcus (GC 4548)” value (Staphylococcus sp.) was 1 µg/mL (≈ 0.698 µM) and the “MIC Coagulase Negative Staphylococcus (GC 4549)” value (Staphylococcus sp.) was 0.5 µg/mL (≈ 0.349 µM). For the same compound, the “MIC Coagulase Negative Staphylococcus (GC 4551)” value (Staphylococcus sp.) was 2 µg/mL (≈ 1.4 µM), the “MIC Coagulase Negative Staphylococcus (GC 6257)” value (Staphylococcus sp.) was 1 µg/mL (≈ 0.698 µM) and the “MIC Staphylococcus aureus (ATCC 29213)” value (Staphylococcus sp.) was 2 µg/mL (≈ 1.4 µM). The “MIC Staphylococcus aureus (GC 1131)” value (Staphylococcus sp.) was 4 µg/mL (≈ 2.79 µM), the “MIC Staphylococcus aureus (GC 3051)” value (Staphylococcus sp.) was 2 µg/mL (≈ 1.4 µM) and the “MIC Staphylococcus aureus (GC 3053)” value (Staphylococcus sp.) was 2 µg/mL (≈ 1.4 µM). The “MIC Staphylococcus aureus (GC 4541)” value (Staphylococcus sp.) was 2 µg/mL (≈ 1.4 µM), the “MIC Staphylococcus aureus (GC 4542)” value (Staphylococcus sp.) was 2 µg/mL (≈ 1.4 µM) and the “MIC Staphylococcus aureus (GC 4544)” value (Staphylococcus sp.) was 2 µg/mL (≈ 1.4 µM). The “MIC Staphylococcus aureus (GC 4545)” value (Staphylococcus sp.) was 2 µg/mL (≈ 1.4 µM), the “MIC Staphylococcus aureus-SMITH (GC 4543)” value (Staphylococcus sp.) was 2 µg/mL (≈ 1.4 µM) and the “MIC Staphylococcus haemolyticus (GC 4546)” value (Staphylococcus sp.) was 1 µg/mL (≈ 0.698 µM). For the same compound, the “MIC Staphylococcus aureus (ATCC 29213)” value (Staphylococcus sp.; strain ATCC 29213) was 2 µg/mL (≈ 1.4 µM), the “MIC Staphylococcus aureus (GC 1131)” value (Staphylococcus sp.; strain GC 1131) was 4 µg/mL (≈ 2.79 µM) and the “MIC Staphylococcus aureus (GC 3051)” value (Staphylococcus sp.; strain GC 3051) was 2 µg/mL (≈ 1.4 µM). For the same compound, the “MIC Staphylococcus aureus (GC 3053)” value (Staphylococcus sp.; strain GC 3053) was 2 µg/mL (≈ 1.4 µM), the “MIC Staphylococcus aureus (GC 4541)” value (Staphylococcus sp.; strain GC 4541) was 2 µg/mL (≈ 1.4 µM) and the “MIC Staphylococcus aureus (GC 4542)” value (Staphylococcus sp.; strain GC 4542) was 2 µg/mL (≈ 1.4 µM). For the same compound, the “MIC Staphylococcus aureus-SMITH (GC 4543)” value (Staphylococcus sp.; strain GC 4543) was 2 µg/mL (≈ 1.4 µM), the “MIC Staphylococcus aureus (GC 4544)” value (Staphylococcus sp.; strain GC 4544) was 2 µg/mL (≈ 1.4 µM) and the “MIC Staphylococcus aureus (GC 4545)” value (Staphylococcus sp.; strain GC 4545) was 2 µg/mL (≈ 1.4 µM). The “MIC Staphylococcus haemolyticus (GC 4546)” value (Staphylococcus sp.; strain GC 4546) was 1 µg/mL (≈ 0.698 µM), the “MIC Coagulase Negative Staphylococcus (GC 4547)” value (Staphylococcus sp.; strain GC 4547) was 2 µg/mL (≈ 1.4 µM) and the “MIC Coagulase Negative Staphylococcus (GC 4548)” value (Staphylococcus sp.; strain GC 4548) was 1 µg/mL (≈ 0.698 µM). For the same compound, the “MIC Coagulase Negative Staphylococcus (GC 4549)” value (Staphylococcus sp.; strain GC 4549) was 0.5 µg/mL (≈ 0.349 µM), the “MIC Coagulase Negative Staphylococcus (GC 4551)” value (Staphylococcus sp.; strain GC 4551) was 2 µg/mL (≈ 1.4 µM) and the “MIC Coagulase Negative Staphylococcus (GC 6257)” value (Staphylococcus sp.; strain GC 6257) was 1 µg/mL (≈ 0.698 µM).
